# Experimental data: patent US11891634B2, “PDE5A destabilizing domains” (The Board of Trustees of the Leland Stanford Junior …, priority 2017, dated 2024)
# pEC50: −log10 of the molar value.
# Tests used:
# [1] = tested on: NIH3T3 cells expressing AcGFP-PDE5A fusions; test: Immunoblot analysis of AcGFP-PDE5A fusions (anti-XFP / anti-HA); assay type: cell-based, mouse; details: 10 μM Sildenafil or vehicle alone, 24 hours
# Experimental: Identified PDE5A mutants were further validated using immunoblot analysis. NIH3T3 cells expressing AcGFP-PDE5A fusions were incubated with 10 μM Sildenafil or vehicle alone for 24 hours and the stability of PDE5A mutants was evaluated at the protein level. Cell lysates obtained from transduced NIH3T3 cells were immunoblotted using the anti-XFP antibody (1:3000) at 4° C. overnight. Samples were also immunoblotted with anti-GAPDH antibody (1:10000) to ensure uniform protein loading. Samples were then incubated with secondary anti-mouse antibody (1:3000) at room temperature for 1 hour, followed by visualization using appropriate methods. […] The difference in band intensity recapitulates the pattern from the FACS analysis.
# A hemagglutinin (HA) sequence (SEQ ID NO. 74; encoded by SEQ ID NO. 75) was cloned in-frame at either the 5′- or 3′-ends of the PDE5A mutant sequence from PDE5AC (#41). The construct further included AcGFP (amino acids 1-239 of WT) at the N terminus (SEQ ID NO. 76, encoded by SEQ ID NO. 77) and an EF linker/EcoRI restriction site (GAATTC). […] The effect of the HA sequence on ligand dependent stabilization was evaluated via immunoblot analysis. […] As show in FIG. 3, HA-tagged fusion protein expression detected with either anti-XFP antibody or anti-HA antibody was nearly identical. […]
# AcGFP = test: Comparison of N-terminal and C-terminal PDE5A derived DD (FACS); assay type: cell-based, human; details: 24 hours
# Experimental: The ability of PDE5A derived DDs to destabilize a protein of interest may depend on the position whether the DD is appended to the N terminus or the C terminus of the protein of interest. Mutant #2, and mutant #41 were appended either to the N terminus or C terminus of AcGFP and analyzed using the cell-based screening assay described previously to identify destabilizing domains. Cells were split into two treatment groups and incubated with either Sildenafil (10 μM) or vehicle alone for 24 hours. Cells that were mock transduced or transduced with the N terminal fused wild-type PDE5A or PDE5AN (#40) constructs were also included in the analysis. The results are presented in Table 8 where the C terminal PDE5A mutants are denoted as PDE5AC and N terminal PDE5A mutants are denoted as PDE5AN.
# The stabilization ratio was calculated as the fold change in GFP intensity of the AcGFP-PDE5A construct in Sildenafil treated sample compared to vehicle alone treated sample.
# [2] = tested on: NIH3T3 cells expressing AcGFP-PDE5A variants; test: Sildenafil dose dependency (FACS, percentage of max MFI); assay type: cell-based, mouse; details: Sildenafil 0.003 μM to 30 μM, read-out: half maximal effective concentration or EC50
# Experimental: NIH3T3 cells expressing AcGFP-PDE5A variants were incubated with varying concentrations of Sildenafil ranging from 0.003 μM to 30 μM. The stability of PDE5A mutants was measured using FACS and mean fluorescence intensity (MFI) of GFP was calculated. […] Percentage of max MFI (%) was calculated as the ratio of the MFI at a ligand concentration compared to the maximum MFI. Percentage of max MFI was plotted against the concentration of Sildenafil presented in a log scale. Titration curves of PDE5AC (#2) and PDE5AC (#41) are presented in FIG. 4A and FIG. 4B, respectively. […] The half maximal effective concentration or EC50 was approximately 0.5 μM for PDE5AC (#2) and 2 μM for PDE5AC (#41).
# [3] = tested on: NIH3T3 cells expressing AcGFP-PDE5A fusions; test: FACS analysis of C-terminal PDE5A mutants (AcGFP-PDE5A fusions), Sildenafil vs vehicle; assay type: cell-based, mouse; details: for Mean Fluorescence intensity: NIH3T3; for Stabilization ratio: Table 4, Sildenafil 10 μM vs vehicle alone
# Experimental: The NIH3T3 cell line was cultured in DMEM supplemented with 10% heat-inactivated donor bovine serum (Invitrogen), 2 mM glutamine, 100 U/ml penicillin and 100 μg/ml streptomycin.
# The ΦNX ecotropic packaging cell line was transfected using standard Lipofectamine 2000 protocols. Viral supernatants were harvested 48 hours, post transfection, filtered and concentrated 10-fold using Amicon Ultra centrifugal filter device with a 100kDa cutoff. NIH 3T3 cells were incubated with concentrated retroviral supernatants supplemented with 4 μg/ml polybrene for 4 hours at 37° C. Cells were washed once with PBS and cultured in growth media for 24-36 hours to allow for viral integration.
# The transduced NIH3T3 cells were subjected to analysis using fluorescence-activated cell sorting (FACS) to screen the libraries of PDE5A mutants. 24 hours prior to analysis, transduced NIH3T3 cells were plated at 1×10^5 cells per well of a 12-well plate. Cells were removed from the plate using PBS and 2 mM EDTA, washed once with PBS, and resuspended in 200 μL, PBS. FACS analysis was performed on instruments at the Stanford Shared FACS Facility with 10,000 events represented.
# To identify destabilizing domains that are responsive to the PDE5A ligand, Sildenafil, a cell-based screening assay was employed in which the fluorescence of green fluorescent protein derived from Aequorea coerulescens (AcGFP) served as an indicator of PDE5A stability. A library based on the PDE5A catalytic domain sequences was generated using error prone PCR and then cloned in-frame in front of AcGFP. A Moloney murine leukemia retroviral expression was used to stably integrate this library of PDE5A-AcGFP fusions into NIH-3T3 fibroblasts, and the transduced cells were subjected to three rounds of sorting using flow cytometry. In the first round, cells were treated with 10 μM of PDE5A ligand, Sildenafil for 16-24 before analysis. Fluorescent cells were collected and further cultured in the absence of ligand for 60 hours.
# A library of AcGFP-PDE5A fusions i.e., C-terminal PDE5A mutants was screened using the cell-based screening assay described previously to identify C-terminal destabilizing domains. […] Identified candidates were subjected to further characterization by FACS. Cells were split into two treatment groups and incubated with either Sildenafil (10 μM) or vehicle alone for 24 hours. Cells that were mock transduced or transduced with the wild-type PDE5A construct were also included in the analysis. The stabilization ratio was calculated as the fold change in GFP intensity of the AcGFP-PDE5A construct in Sildenafil treated sample compared to vehicle alone treated sample. The results are presented in Table 2 where the C terminal PDE5A mutants are denoted as PDE5AC.
# Residue D764 was identified as a mutational hotspot from sequence analysis. PDE5AC (#41) was engineered with either D764N or D764G mutation via site-directed mutagenesis. PDE5AC (#41) +D764N comprises the amino acid sequence of SEQ ID NO. 53 (encoded by SEQ ID NO. 54) and PDE5AC (#41) +D764G comprises the amino acid sequence of SEQ ID NO. 55 (encoded by SEQ ID NO. 56). AcGFP-PDE5A variants were evaluated for Sildenafil dependent stabilization via FACS as described previously. Results from FACS analysis are presented in Table 4 where the C terminal PDE5A mutants are denoted as PDE5AC. The stabilization ratio was calculated as the fold change in GFP intensity of the AcGFP-PDE5A construct in Sildenafil treated sample compared to vehicle alone treated sample.
# Extended versions of human PDE5A that included residues in addition to catalytic domain (residues 535-860 of SEQ ID NO. 1) with Q589R polymorphism (SEQ ID NO. 11) were evaluated for use as C-terminal destabilizing domains. Three extended PDE5A sequences were tested that consisted of residues 535-875 of SEQ ID NO. 1 with Q589R polymorphism (SEQ ID NO. 13); residues 466-875 of SEQ ID NO. 1 with Q589R polymorphism (SEQ ID NO. 15); or residues 420-875 of SEQ ID NO. […]
# [4] = Table 2, Sildenafil (10 μM) +, 24 hours
# [5] = Table 2, Sildenafil (10 μM) −, vehicle alone, 24 hours
# [6] = Table 4 (D764 mutations), Sildenafil (10 μM) +
# [7] = Table 4 (D764 mutations), Sildenafil (10 μM) −
Substance,Fusion protein expression / ligand dependent stabilization by immunoblot [1],Mean FITC-A DMSO (AcGFP),Mean FITC-A Sildenafil (10 μM) (AcGFP),pEC50 [2],"Mean Fluorescence intensity [3, 4]","Mean Fluorescence intensity [3, 5]","Mean Fluorescence intensity [3, 6]","Mean Fluorescence intensity [3, 7]",Stabilization ratio [3]
"PDE5AC (#41): AcGFP fused to C-terminal DD 535-860 of PDE5A (F561L, Q589R, K604E, D724N, L797F), SEQ ID NO. 27",most drastic difference in the intensity of the bands,1443,4620,~5.70,6115,1000,4647,734,6.3
"PDE5AC (#2): AcGFP fused to C-terminal DD 535-860 of PDE5A (Q589R, D687A, D764N, S815C), SEQ ID NO. 23",most drastic difference in the intensity of the bands,1342,5030,~6.30,6577,1023,3483,671,5.2
